Columns and labels:
[1] = tested on: Diamond back moth; assay: insecticidal activity against diamond back moth, airbrush spray; type: in vivo; details: for control (test results against diamond back moth): mortality after 72 hrs
How it was run: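 Airbrush leaf-disc spray test: both faces of 2 cm cabbage discs received 0.5 ml of test solution at 0.7 kg/cm^2. Solutions were made in acetone:methanol (1:1) and brought to concentration with 0.1% Tween 80 in water. Ten second-instar larvae per disc, triplicates, were held at 25° C and 60˜70% R.H., with mortality recorded at 72 hrs.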

[2] = tested on: cucumber downy mildew; assay: protectant activity in vivo against cucumber downy mildew; details: for control effect against cucumber downy mildew (%): protectant activity
[3] = tested on: Green peach aphids (Myzus Persicae Sulzer); assay: bioactivity test against green peach aphid, airbrush foliar spray; type: in vivo; details: for control (test results against green peach aphid): death rate after 48 hrs; for Insecticidal activity against peach aphid (%): contrastive test
How it was run: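 Aphids (15-30 per cabbage leaf disc) on moist filter paper were airbrush-sprayed at 10 psi, 0.5 mL, with compound from acetone:methanol (1:1) diluted in water with 0.1% tween 80. Held at 25±1 C, 60±5% RH; survivors counted after 48 hrs to give death rates.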

[4] = tested on: wheat powdery mildew; assay: protectant activity in vivo against wheat powdery mildew; details: 400 ppm
[5] = tested on: corn rust; assay: protectant activity in vivo against corn rust
[6] = tested on: armyworm; assay: bioactivity test against armyworm, airbrush spray; type: in vivo; details: for control (test results against armyworm): mortality after 72 h
[7] = tested on: carmine spider mite; assay: bioactivity test against carmine spider mite, airbrush spray; type: in vivo; details: for Insecticidal activity against carmine spider mite (% ): contrastive test; for control against carmine spider mite: mortality after 72 hrs
How it was run: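 Broadbean seedlings infested with adult mites were sprayed with compound (acetone/methanol stock diluted in 0.1% Tween 80 water) by airbrush at 0.7 kg/cm^2, 0.5 ml. Three replicates were run. Mortality was scored after 72 hrs.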

Row | SMILES | control (test results against diamond back moth) ([1]; 600 ppm) | control effect against cucumber downy mildew (%) ([2]; 6.25 mg/L) | control effect against cucumber downy mildew (%) ([2]; 12.5 mg/L) | control effect against cucumber downy mildew (%) ([2]; 25 mg/L) | control effect against cucumber downy mildew (%) ([2]; 50 mg/L) | control effect against cucumber downy mildew (%) ([2]; 100 mg/L) | control effect against cucumber downy mildew (%) ([2]; 400 mg/L) | protectant activity against cucumber downy mildew in vivo ([2]; 25 ppm) | protectant activity against cucumber downy mildew in vivo ([2]; 50 ppm) | protectant activity against cucumber downy mildew in vivo ([2]; 100 ppm) | protectant activity against cucumber downy mildew in vivo ([2]; 400 ppm) | control (test results against green peach aphid) ([3]; 100 ppm) | control (test results against green peach aphid) ([3]; 600 ppm) | protectant activity against wheat powdery mildew in vivo [4] | protectant activity against corn rust in vivo ([5]; 400 ppm) | control (test results against armyworm) ([6]; 600 ppm) | Insecticidal activity against carmine spider mite (% ) ([7]; 100 mg/L) | Insecticidal activity against carmine spider mite (% ) ([7]; 600 mg/L) | control against carmine spider mite ([7]; 100 ppm) | control against carmine spider mite ([7]; 600 ppm) | other results
1 | Cc1ccc(Oc2ccc(CCNc3ncnc(C)c3Cl)cn2)cc1 [III-16] | 100% | 100% | 100% | 100% | 100% | 100% | 100% | 100% | 100% | 100% | 100% | 100% | 100% | 100% | 100% | 100% | 100% | 100% | 100% | 100% | protectant activity against cucumber downy mildew in vivo ([2]; 6.25 ppm): 100%; protectant activity against cucumber downy mildew in vivo ([2]; 12.5 ppm): 100%
2 | COc1ccc(Oc2ccc(CCNc3ncnc(C)c3Cl)cn2)cc1 [III-19] | 100% | 95% | 98% | 100% | 100% | 100% | 100% | 100% | 100% | 100% | 100% | – | 100% | 100% | 100% | 100% | – | – | – | 100% | –
3 | CCc1ncnc(NCCc2ccc(Oc3ccccc3)nc2)c1Cl [III-181] | 100% | – | – | 100% | 100% | 100% | 100% | 100% | 100% | 100% | 100% | 100% | 100% | 100% | 100% | 100% | 100% | 100% | 100% | 100% | Insecticidal activity against peach aphid (%) ([3]; 10 mg/L): 100%; Insecticidal activity against peach aphid (%) ([3]; 100 mg/L): 100%; Insecticidal activity against peach aphid (%) ([3]; 600 mg/L): 100%; control (test results against green peach aphid) ([3]; 10 ppm): 100%
4 | CCc1ncnc(NCCc2ccc(Oc3ccc(C)cc3)nc2)c1Cl [III-196] | 100% | 85% | 85% | 100% | 100% | 100% | 100% | 100% | 100% | 100% | 100% | 100% | 100% | 100% | 100% | 100% | – | – | – | 100% | Insecticidal activity against diamond back moth (%) ([1]; 100 mg/L): 100%; Insecticidal activity against diamond back moth (%) ([1]; 600 mg/L): 100%; control (test results against diamond back moth) ([1]; 100 ppm): 100%
5 | CCc1ncnc(NCCc2ccc(Oc3ccc(OC)cc3)nc2)c1Cl [III-199] | 100% | – | – | – | – | – | – | – | – | 100% | 100% | 100% | 100% | 100% | 100% | 100% | 100% | 100% | 100% | 100% | Insecticidal activity against armyworm (%) ([6]; 10 mg/L): 64%; Insecticidal activity against armyworm (%) ([6]; 100 mg/L): 100%; Insecticidal activity against armyworm (%) ([6]; 600 mg/L): 100%; control (test results against armyworm) ([6]; 100 ppm): 100%; Insecticidal activity against carmine spider mite (% ) ([7]; 10 mg/L): 87%
6 | CCc1ncnc(NCCc2ccc(Oc3cccc(C(F)(F)F)c3)nc2)c1Cl [III-201] | 100% | – | 98% | 100% | 100% | 100% | 100% | 100% | 100% | 100% | 100% | 100% | 100% | 100% | 100% | 100% | – | – | – | 100% | protectant activity against corn rust in vivo ([5]; 100 ppm): 100%
7 | FC(F)c1ncnc(NCCc2ccc(Oc3ccccc3)nc2)c1Cl [III-541] | 100% | 100% | 100% | 100% | 100% | 100% | 100% | 100% | 100% | 100% | 100% | 100% | 100% | 100% | 100% | 100% | – | – | – | 100% | control effect against cucumber downy mildew (%) ([2]; 3.125 mg/L): 95%; protectant activity against cucumber downy mildew in vivo ([2]; 6.25 ppm): 100%; protectant activity against cucumber downy mildew in vivo ([2]; 12.5 ppm): 100%
8 | FC(F)c1ncnc(NCCc2ccc(Oc3ccc(Cl)cc3)nc2)c1Cl [III-547] | 100% | – | – | 100% | 100% | 100% | 100% | 100% | 100% | 100% | 100% | 100% | 100% | 100% | 100% | 100% | 100% | 100% | 100% | 100% | Insecticidal activity against diamond back moth (%) ([1]; 10 mg/L): 57%; Insecticidal activity against diamond back moth (%) ([1]; 100 mg/L): 100%; Insecticidal activity against diamond back moth (%) ([1]; 600 mg/L): 100%; control (test results against diamond back moth) ([1]; 100 ppm): 100%; Insecticidal activity against peach aphid (%) ([3]; 10 mg/L): 100%; Insecticidal activity against peach aphid (%) ([3]; 100 mg/L): 100%; Insecticidal activity against peach aphid (%) ([3]; 600 mg/L): 100%; control (test results against green peach aphid) ([3]; 10 ppm): 100%; Insecticidal activity against armyworm (%) ([6]; 10 mg/L): 95%; Insecticidal activity against armyworm (%) ([6]; 100 mg/L): 100%; Insecticidal activity against armyworm (%) ([6]; 600 mg/L): 100%; control (test results against armyworm) ([6]; 100 ppm): 100%

Source: US9770026B2, “Substituted pyrimidine compound and uses thereof” (Shenyang Sinochem Agrochemicals R&D Co., Ltd., priority 2012, dated 2017)
